Molecular target: Angiotensin-converting enzyme (Bos taurus) (UniProt P12820)
Test: Inhibitory activity against Angiotensin I converting enzyme (ACE) from bovine kidney

Angiotensin-converting enzyme (Bos taurus), sequence (P12820 whole entry, looked up): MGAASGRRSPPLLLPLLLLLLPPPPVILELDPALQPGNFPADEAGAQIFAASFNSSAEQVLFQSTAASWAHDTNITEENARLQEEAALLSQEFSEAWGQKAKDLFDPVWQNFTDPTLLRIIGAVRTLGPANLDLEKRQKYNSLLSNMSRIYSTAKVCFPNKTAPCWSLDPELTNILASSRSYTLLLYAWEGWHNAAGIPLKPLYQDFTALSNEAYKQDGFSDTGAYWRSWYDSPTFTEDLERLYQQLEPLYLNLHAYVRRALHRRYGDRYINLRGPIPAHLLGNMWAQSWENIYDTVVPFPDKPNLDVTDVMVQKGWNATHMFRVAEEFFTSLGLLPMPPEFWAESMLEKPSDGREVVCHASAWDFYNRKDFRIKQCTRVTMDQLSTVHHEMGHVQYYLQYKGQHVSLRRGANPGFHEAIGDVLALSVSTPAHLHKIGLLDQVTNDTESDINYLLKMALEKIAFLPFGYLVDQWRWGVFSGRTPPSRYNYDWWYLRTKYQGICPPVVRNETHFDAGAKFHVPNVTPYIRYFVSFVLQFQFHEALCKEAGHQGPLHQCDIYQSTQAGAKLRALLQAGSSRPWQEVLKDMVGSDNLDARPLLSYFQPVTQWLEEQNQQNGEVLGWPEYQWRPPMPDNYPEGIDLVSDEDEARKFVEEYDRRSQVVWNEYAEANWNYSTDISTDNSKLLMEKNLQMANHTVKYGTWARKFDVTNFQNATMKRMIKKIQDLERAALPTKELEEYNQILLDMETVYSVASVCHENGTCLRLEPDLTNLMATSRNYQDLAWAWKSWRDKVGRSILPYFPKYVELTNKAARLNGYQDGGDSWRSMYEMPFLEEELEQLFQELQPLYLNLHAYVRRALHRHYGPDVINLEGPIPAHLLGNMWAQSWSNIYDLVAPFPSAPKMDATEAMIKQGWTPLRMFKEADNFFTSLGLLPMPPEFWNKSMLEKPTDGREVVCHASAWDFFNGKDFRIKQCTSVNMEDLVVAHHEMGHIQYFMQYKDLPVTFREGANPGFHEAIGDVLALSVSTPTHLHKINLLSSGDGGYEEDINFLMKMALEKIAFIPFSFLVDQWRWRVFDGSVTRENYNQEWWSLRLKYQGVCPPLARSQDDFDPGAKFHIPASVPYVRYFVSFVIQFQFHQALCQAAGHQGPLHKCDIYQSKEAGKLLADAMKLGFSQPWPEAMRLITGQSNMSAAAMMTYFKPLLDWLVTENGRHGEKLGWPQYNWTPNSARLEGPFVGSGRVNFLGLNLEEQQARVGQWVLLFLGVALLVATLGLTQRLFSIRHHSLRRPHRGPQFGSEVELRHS

Row | IC50 [nM] | SMILES
1 | 300 | CC(=O)SCC(C)C(=O)Nc1ccccc1 (stereo not drawn) [Thioacetic acid S-(2-phenylcarbamoyl-propyl) ester]
2 | 1 | CC1CCCC(C(=O)O)N1C(=O)CCS (stereo not drawn) [1-(3-Mercapto-propionyl)-6-methyl-piperidine-2-carboxylic acid]
3 | 500000 | CC(=O)SCC(C)C(=O)NCc1ccccc1 (stereo not drawn) [Thioacetic acid S-(2-benzylcarbamoyl-propyl) ester]
